Measurements published in patent US8440718B2, “Modulation of inflammation related to columnar epithelia” (The Brigham and Women's Hospital, Inc., priority 1991, dated 2013).

Columns and labels:
[1] = test system: T84 intestinal epithelial cells; assay: fMLP-induced PMN migration after LXA4 exposure of T84 epithelial monolayers; format: cell-based, human
Method: Lipoxins Synthetic LXA4, LXB4, and 11-trans-LXA4 were obtained from Cascade Biochem Ltd. (Berkshire, United Kingdom). Concentrations were determined from extinction coefficients as described in Sheppard K-A., et al. (1992). Biochimica et Biophysica Acta 1133: 223-234. All eicosanoid stock solutions were stored at −70° C. in […] (American Scientific Products). Eicosanoids were diluted in modified HBSS to a concentration of 1 μM prior to all experiments. PMN or T84 monolayers were exposed to lipoxins at indicated concentrations and allowed to incubate at 37° C. for the indicated period of time. Vehicle controls consisted of dilutions of the solvent (ethanol) equivalent to the highest concentration of lipoxin used in any given experiment (0.01%). […]
Migration was quantitated by assaying for the PMN azurophilic granule marker myeloperoxidase (MPO) as described previously (Parkos C. A., et al. (1991). J. Clin. Invest 88: 1605-1612). Following each migration assay, non-adherent PMN were extensively washed from the surface of the monolayer and PMN cell equivalents (PMN CE), estimated from a standard curve, were assessed as the number of PMN's associated with the monolayer, the number which had completely traversed the monolayer (ie. across the monolayer into the reservoir bath), as well as the total number of transmigrating PMN (the sum of monolayer and reservoir-associated PMN). […]

[2] = test system: human PMN migration across T84 epithelial monolayers; assay: Effect of inhibitors on baseline and LXA4-elicited PMN transepithelial migration, apical-to-basolateral; format: cell-based; details: for LXA4-elicited increase in fMLP driven PMN migration over control: LXA4 10 nM
[3] = target: lipoxin binding sites on human PMN; details: reported; cited from earlier work

Structure (SMILES): CCCCC[C@H](O)/C=C/C=C\C=C\C=C\[C@@H](O)[C@@H](O)CCCC(=O)O (relative stereo) [LXA4, (5S, 6R, 15S)-trihydroxy-7,9,13-trans-11-cis-eicosatetraenoic acid]
- total number of transmigrating PMN ([1]; T84 monolayers incubated with 10 nM LXA4 15 min 37°C, LXA4 not removed, untreated PMN, 1 μM fMLP): 15.7±1.8 ×10^4 PMN CE/ml
- total number of transmigrating PMN ([1]; T84 monolayers incubated with 10 nM LXA4 15 min, LXA4 removed by washing thrice with HBSS before PMN): 14.3±1.1 ×10^4 PMN CE/ml
- LXA4-elicited increase in fMLP driven PMN migration over control ([2]; PMN pre-exposed to indomethacin 50 μM): 61±11%
- LXA4-elicited increase in fMLP driven PMN migration over control ([2]; without indomethacin): 54±7%
- LXA4-elicited increase in PMN migration compared to control ([2]; LXA4 10 μM (so in the source), pertussis toxin experiment): 46±3%
- Kd [3]: 0.5 nM
